For one assay, the system named is LNCaP cells. As to conditions: read-out: IC50 (μM) in LNCaP cells; LNCaP (androgen-dependent), 48 hours.
A further assay has as its system PC-3 cells. Nature of the assay: PI-AnnexinV apoptosis staining, PC-3 cells. The assay is classed as cell-based, human. As to conditions: PC-3, 3 μM, 48 hours and 72 hours. As for the experimental part:
To PC-3 cells, 3 μM Chb-M′ was administered. After 48 hours and 72 hours, the percentage of apoptosis was analyzed by PI-AnnexinV apoptosis staining. As a control, DMSO was administered. As a result, the apoptosis rate was increased depending on the […] of Chb-M′ (FIG. 46).

A further assay relates to BCR-ABL gene. Nature of the assay: qRT-PCR of BCR-ABL gene in CML and PhALL cells. Type of assay: cell-based, human. As to conditions: 3 μM or 1 μM, 6 hours. As for the experimental part:
A total RNA was isolated with RNeasy mini kit (Qiagen) and reverse transcribed with Reverse script kit (TOYOBO) to generate cDNA. Real-time quantitative polymerase chain reaction (PCR) was carried out with 7500 Real-Time PCR System (Applied Biosystems) according to the manufacturer's instructions. Results were normalized to GAPDH levels. Relative expression levels were calculated using the 2-ΔΔCt method.
To BV173 cells, MYL cells, SU-Ph2 cells, and SU/SR cells, 3 μM or 1 μM of Chb-M′ was administered. After 6 hours, a total RNA was extracted from the cells, and then subjected to qRT-PCR (see the above-described “Real-time quantitative PCR (qRT-PCR)”) to quantify the expression levels of BCR-ABL gene. As a control, DMSO was administered. In the figures, the expression levels are shown as values relative to the mRNA level of p210BCR-ABL or the mRNA level of p190BCR-ABL in the DMSO (control)-administered group.

A further assay relates to A549 cells. Put plainly: Xenograft lung cancer mouse model (A549). Type of assay: in vivo.
The test system of another assay is MV4-11 cells. Put plainly: Xenograft AML mouse model (MV4-11). Type of assay: in vivo. As to conditions: NOG mice with MV4-11, day 14.
For the next assay, the system named is MLL-ENL leukemia cells. Nature of the assay: Homing assay of MLL-ENL leukemia cells. Conditions: B6 mice, 320 μg/kg, 6 times over 2 weeks; 24 hours after cell injection. The assay is classed as in vivo, mouse.
For the next assay, the system named is LU99A. Nature of the assay: Cell viability, lung adenocarcinoma LU99A. As to conditions: LU99A (EGFR wild-type p53 wild-type), 48 hours. The assay is classed as cell-based, human.
Assay [1] deals with E-selectin, P-selectin, Tie2, ICAM-1, VCAM-1, Jagged-1. Put plainly: qRT-PCR of adhesion molecule genes in HUVEC. Type of assay: cell-based, human. As to conditions: 0.5 μM, 1 μM, or 5 μM, 6 hours. (Real-time PCR tracks product formation cycle by cycle.)
The test system of the next assay is E-selectin. Nature of the assay: In vivo E-selectin expression in bone marrow endothelial cells. As to conditions: normal mice, 320 μg/kg, 6 times over 2 weeks, 24 hours after last administration. More on the design: species or system mouse. As for the experimental part: Changes in expression levels of E-selectin in bone marrow endothelial cells by Chb-M′ administration were examined in vivo. To normal mice, DMSO (control) or Chb-M′ was administered 6 times over 2 weeks (320 μg/kg per administration). Twenty-four hours after the last administration (in a state in which Chb-M′ had been eliminated from the body of the mouse), the femur and tibia were harvested, from them bone marrow hematopoietic cells were removed, and endothelial cells were collected and subjected to FACS analysis. CD45 negative cells (bone marrow cells without bone marrow hematopoietic cells) were gated, and a ratio between CD31 positive cells (vascular endothelial marker-positive) and Lin-negative CD45-negative CD31-positive E-selectin-positive cells (E-selectin-positive bone marrow vascular endothelial cells) was analyzed by FACS.

Like-named read-outs stand apart in the source and are kept apart here.

For the molecule `CN(C)CCCNC(=O)c1cc(NC(=O)c2cc(NC(=O)c3cc(NC(=O)c4cc(NC(=O)CCCNC(=O)c5nc(NC(=O)c6nc(NC(=O)c7cc(NC(=O)c8nc(NC(=O)CCNC(=O)CCCc9ccc(N(CCCl)CCCl)cc9)cn8C)cn7C)cn6C)cn5C)cn4C)cn3C)cn2C)cn1C` [Chb-M′], the IC50 in the assay with LNCaP cells was 0.68 µM; in the assay on MV4-11NR (read-out: IC50 (μM) of Chb-M′ in concomitant use with PRIMA-1 (5 μM), p53mut(+), 48 hours, with 5 μM PRIMA-1), 0.00103 µM; with MV4-11NR (read-out: IC50 (μM) of Chb-M′ single agent administration, p53mut(+), 48 hours), over 100 µM; in the assay with NB4 (p53MT) (culture time 48 hours), 357 nM; in the assay on NB4 (p53MT) (culture time 72 hours), 44.6 nM. In addition, the Apoptosis rate entry in the assay with PC-3 cells is on record as “increased”. For the same molecule, the “mRNA level of p210BCR-ABL” value in the assay with BCR-ABL gene (BV173 cells) and with BCR-ABL gene (MYL cells) was “decreased” in each case. Also, the “mRNA level of p190BCR-ABL” value in the assay on BCR-ABL gene (SU-Ph2 cells) and with BCR-ABL gene (SU/SR cells) was “decreased” in each case. In the assay on MV4-11NR (p53mut(+), concomitant use of Chb-M′ and PRIMA-1, Chou-Talalay, CI<1 synergism), the “CI (Fa = 0.5)” value was found to be 0.380. The “Effect on the lung cancer model” value in the assay with A549 cells (A549 xenograft) is on record as “inhibited the growth”. Besides, in the assay on A549 cells (day 14 after transplantation), the “H&E staining of lung tissue (lung cancer cells in pulmonary alveoli)” value is “rather diminished”. Also, the “Brightness of luciferase (IVIS), lung” value in the assay with A549 cells (day 14 after transplantation, after 2 administrations) is “rather weakened”; with A549 cells (day 21 after transplantation, after total 4 administrations) it was “further weakened”. Further, the “Bioluminescence signal intensity vs DMSO or gefitinib” value in the assay on A549 cells (day 21 after transplantation) is listed as “far lower”. The “Lengthening of overall survival periods” value in the assay with A549 cells (mice with gefitinib-resistant A549, 320 μg/kg IV twice a week from day 7) is given as “about 2 times”. Further, the “H&E staining of bone marrow” value in the assay with MV4-11 cells is “homogeneity was lost”. In addition, the “hCD45 staining of bone marrow (human leukemia cells)” value in the assay on MV4-11 cells is “most of the brown parts lost”. Also, the “Number of MLL-ENL cells in bone marrow vs control group” value in the assay on MLL-ENL leukemia cells was “smaller”. The “Number of leukemia cells in spleen” value in the assay with MLL-ENL leukemia cells is on record as “increased”. Also, the “IC50 compared with the EGFR inhibitor (gefitinib)” value in the assay on LU99A is recorded as “lower IC50 values”. Further, the “E-selectin, P-selectin, and VCAM-1 mRNA levels” value in [1] is recorded as “markedly suppressed”. The “E-selectin expression levels in bone marrow endothelial cells” value in the assay with E-selectin is reported as “significantly decreased”.

The record behind these values is US11235001B2, “RUNX inhibitor” (KYOTO UNIVERSITY, priority 2016, dated 2022).
